Reference: patent US4345938A, “Herbicidal 2-haloacetanilides” (Monsanto Company, priority 1980, dated 1982)
Like-named read-outs stand apart in the source and are kept apart here.

Experiments:
Assay type in all cases: in vivo
Rice [1] = assay: Field transplant rice test, applied 0 DAT, rice injury; conditions: for inhibition at 375 g/ha / inhibition at 750 g/ha / inhibition at 1500 g/ha / inhibition at 3000 g/ha: Oryza sativa, 0 h, read-out: Percent Inhibition, Rice; for inhibition at 375 g/ha: 0.375 Kg/Ha; for inhibition at 750 g/ha: 0.75 Kg/Ha; for inhibition at 1500 g/ha: 1.5 Kg/Ha; for inhibition at 3000 g/ha: 3.0 Kg/Ha
Procedure: (§1) In further comparative tests, a preferred compound of this invention (Example 1) was tested in the field with prior art Compounds A-D. These tests were conducted under conditions reflecting herbicide application times generally favorable to all herbicides in the test. The timing of application of herbicides to transplant rice is very important, whether, as in some instances, prior to transplanting the rice; in other instances, at the time of transplanting or else after transplanting. Application times are conventionally referred to as "days before transplant" (DBT) or "days after transplant" ("DAT"). The field test data in Table IV was obtained from a test in which the herbicides were applied at the time of transplant, i.e., "0 DAT", with observations being made weekly up to six weeks after transplant ("WAT") beginning at two weeks after transplant; for illustrative and representative purposes, only the early, middle and late period observations, i.e., 2 WAT, 4 WAT and 6 WAT, are shown in Table IV. The data in Table IV is for rates of application common to all herbicides in the test, i.e., from 3.0 kg/ha (2.67 lb/A) down to 0.375 kg/ha (0.34 lb/A). All herbicides were applied at their actual or expected use rates, i.e., as granules containing 2.5% by weight herbicide for the compound of Example 1, Compounds B, C and D and 5.0% by weight for Compound A.

Eleocharis kuroguwai = assay: Field transplant rice test, applied 9 DAT, EK; conditions: for inhibition at 375 g/ha / inhibition at 750 g/ha / inhibition at 1500 g/ha / inhibition at 3000 g/ha: Eleocharis kuroguwai, 216 h, read-out: Percent Inhibition, EK; for inhibition at 375 g/ha: 0.375 Kg/Ha; for inhibition at 750 g/ha: 0.75 Kg/Ha; for inhibition at 1500 g/ha: 1.5 Kg/Ha; for inhibition at 3000 g/ha: 3.0 Kg/Ha
Source text: (§2) In the discussion of data below, occasional reference is made to herbicide application rates symbolized as "GR15 " and "GR85 "; these rates are given in kilograms per hectare (kg/ha) which are convertible into pounds per acre (lbs/A) by dividing the kg/ha rate by 1.12.
(§3) A further guide to the effectiveness of a chemical as a selective herbicide is the "selectivity factor" ("SF") for a herbicide in given crops and weeds. The selectivity factor is a measure of the relative degree of crop safety and weed injury and is expressed in terms of the GR15 /GR85 ratio, i.e., the GR15 rate for the crop divided by the GR85 rate for the weed, both rates in kg/ha (lb/A.)
(§4) The test data in Table III for all compounds was obtained under identical test conditions. The weeds used in the tests herein have the following abbreviations in the tables: Echinochloa crus-galli (EC), Monochloria vaginalis (MV), Cyperus Serotinus (CS), Eleocharis Kuroguwai (EK) and Sagittaria trifolia (ST).
as §1
(§5) In Table V are presented field data showing the relative performance of the compound of Example 1 and Compounds A-D applied 9 DAT, with observations being made weekly from 3 WAT to 7 WAT; again, for illustrative and representative purposes, only the early, middle and late period observations are reported in Table V, the herbicide rates and concentrations of active ingredients the same as is shown in Table IV.

Echinochloa crus-galli = assay: Field transplant rice test, applied 9 DAT, EC; conditions: for inhibition at 375 g/ha / inhibition at 750 g/ha / inhibition at 1500 g/ha / inhibition at 3000 g/ha: Echinochloa crus-galli, 216 h, read-out: Percent Inhibition, EC; for inhibition at 375 g/ha: 0.375 Kg/Ha; for inhibition at 750 g/ha: 0.75 Kg/Ha; for inhibition at 1500 g/ha: 1.5 Kg/Ha; for inhibition at 3000 g/ha: 3.0 Kg/Ha
Source text: as §2, §3, §4, §1, §5

Monochoria vaginalis = assay: Field transplant rice test, applied 9 DAT, MV; conditions: for inhibition at 375 g/ha / inhibition at 750 g/ha / inhibition at 1500 g/ha / inhibition at 3000 g/ha: Pontederia vaginalis, 216 h, read-out: Percent Inhibition, MV; for inhibition at 375 g/ha: 0.375 Kg/Ha; for inhibition at 750 g/ha: 0.75 Kg/Ha; for inhibition at 1500 g/ha: 1.5 Kg/Ha; for inhibition at 3000 g/ha: 3.0 Kg/Ha
Source text: as §2, §3, §4, §1, §5

Rice [2] = assay: Field transplant rice test, applied 9 DAT, rice injury; conditions: Oryza sativa, 216 h, read-out: Percent Inhibition, Rice; for inhibition at 375 g/ha: 0.375 Kg/Ha; for inhibition at 750 g/ha: 0.75 Kg/Ha; for inhibition at 1500 g/ha: 1.5 Kg/Ha; for inhibition at 3000 g/ha: 3.0 Kg/Ha
Procedure: as §1, §5

CCCCOCN(C(=O)CCl)c1c(C)cccc1C(C)(C)C [Compound C, 2'-methyl-6'-tert-butyl-N-(n-butoxymethyl)-2-chloroacetanilide]
injury rate in rice (Rice [1]; 1.5 kg/ha (1.34 lb/A), after 4 WAT): greater than 15% | inhibition at 375 g/ha (Rice [1]; 2 WAT): 3% | inhibition at 375 g/ha (Rice [1]; 4 WAT): 0% | inhibition at 375 g/ha (Rice [1]; 6 WAT): 0% | inhibition at 750 g/ha (Rice [1]; 2 WAT): 2% | inhibition at 750 g/ha (Rice [1]; 4 WAT): 2% | inhibition at 750 g/ha (Rice [1]; 6 WAT): 2% | inhibition at 1500 g/ha (Rice [1]; 2 WAT): 12% | inhibition at 1500 g/ha (Rice [1]; 4 WAT): 18% | inhibition at 1500 g/ha (Rice [1]; 6 WAT): 18% | inhibition at 3000 g/ha (Rice [1]; 2 WAT): 22% | inhibition at 3000 g/ha (Rice [1]; 4 WAT): 27% | inhibition at 3000 g/ha (Rice [1]; 6 WAT): 30% | inhibition at 375 g/ha (Eleocharis kuroguwai; 3 WAT): 52% | inhibition at 375 g/ha (Eleocharis kuroguwai; 5 WAT): 23% | inhibition at 375 g/ha (Eleocharis kuroguwai; 7 WAT): 15% | inhibition at 750 g/ha (Eleocharis kuroguwai; 3 WAT): 75% | inhibition at 750 g/ha (Eleocharis kuroguwai; 5 WAT): 68% | inhibition at 750 g/ha (Eleocharis kuroguwai; 7 WAT): 32% | inhibition at 1500 g/ha (Eleocharis kuroguwai; 3 WAT): 70% | inhibition at 1500 g/ha (Eleocharis kuroguwai; 5 WAT): 77% | inhibition at 1500 g/ha (Eleocharis kuroguwai; 7 WAT): 38% | inhibition at 3000 g/ha (Eleocharis kuroguwai; 3 WAT): 83% | inhibition at 3000 g/ha (Eleocharis kuroguwai; 5 WAT): 93% | inhibition at 3000 g/ha (Eleocharis kuroguwai; 7 WAT): 74% | selectivity factor (GR15/GR85), EK in transplant rice (Eleocharis kuroguwai; at 5 WAT): greater than 1 | inhibition at 375 g/ha (Echinochloa crus-galli; 3 WAT): 82% | inhibition at 375 g/ha (Echinochloa crus-galli; 5 WAT): 78% | inhibition at 375 g/ha (Echinochloa crus-galli; 7 WAT): 82% | inhibition at 750 g/ha (Echinochloa crus-galli; 3 WAT): 92% | inhibition at 750 g/ha (Echinochloa crus-galli; 5 WAT): 95% | inhibition at 750 g/ha (Echinochloa crus-galli; 7 WAT): 97% | inhibition at 1500 g/ha (Echinochloa crus-galli; 3 WAT): 98% | inhibition at 1500 g/ha (Echinochloa crus-galli; 5 WAT): 100% | inhibition at 1500 g/ha (Echinochloa crus-galli; 7 WAT): 100% | inhibition at 3000 g/ha (Echinochloa crus-galli; 3 WAT): 98% | inhibition at 3000 g/ha (Echinochloa crus-galli; 5 WAT): 100% | inhibition at 3000 g/ha (Echinochloa crus-galli; 7 WAT): 100% | selectivity factor (GR15/GR85), EC in transplant rice (Echinochloa crus-galli; between 3 WAT and 7 WAT): 4 | inhibition at 375 g/ha (Monochoria vaginalis; 3 WAT): 97% | inhibition at 375 g/ha (Monochoria vaginalis; 5 WAT): 98% | inhibition at 375 g/ha (Monochoria vaginalis; 7 WAT): 60% | inhibition at 750 g/ha (Monochoria vaginalis; 3 WAT): 100% | inhibition at 750 g/ha (Monochoria vaginalis; 5 WAT): 100% | inhibition at 750 g/ha (Monochoria vaginalis; 7 WAT): 100% | inhibition at 1500 g/ha (Monochoria vaginalis; 3 WAT): 100% | inhibition at 1500 g/ha (Monochoria vaginalis; 5 WAT): 100% | inhibition at 1500 g/ha (Monochoria vaginalis; 7 WAT): 100% | inhibition at 3000 g/ha (Monochoria vaginalis; 3 WAT): 100% | inhibition at 3000 g/ha (Monochoria vaginalis; 5 WAT): 100% | inhibition at 3000 g/ha (Monochoria vaginalis; 7 WAT): 100% | selectivity factor (GR15/GR85), MV in transplant rice (Monochoria vaginalis; between 3 WAT and 7 WAT): 8 | inhibition at 375 g/ha (Rice [2]; 3 WAT): 17% | inhibition at 375 g/ha (Rice [2]; 5 WAT): 8% | inhibition at 375 g/ha (Rice [2]; 7 WAT): 10% | inhibition at 750 g/ha (Rice [2]; 3 WAT): 10% | inhibition at 750 g/ha (Rice [2]; 5 WAT): 7% | inhibition at 750 g/ha (Rice [2]; 7 WAT): 8% | inhibition at 1500 g/ha (Rice [2]; 3 WAT): 18% | inhibition at 1500 g/ha (Rice [2]; 5 WAT): 15% | inhibition at 1500 g/ha (Rice [2]; 7 WAT): 13% | inhibition at 3000 g/ha (Rice [2]; 3 WAT): 10% | inhibition at 3000 g/ha (Rice [2]; 5 WAT): 5% | inhibition at 3000 g/ha (Rice [2]; 7 WAT): 8%
